# Data from patent US20030129205A1, “Composition and method for the prevention and/or the treatment of allergy” (priority 2000, published 2003).
# Tests used:
# CD4+ T cells = assay: in vitro T cell proliferation assay ([3H]thymidine incorporation) with T cells of immunized Balb/c mice; assay type: cell-based, mouse; conditions: for proliferation of T cells from immunized mice: Balb/c (H-2d) mice immunized in footpad with 100 μg in complete Freund's adjuvant, lymph node CD4+ T cells restimulated in vitro with myoglobin or Der p II; for immunogenicity: Balb/c mice, subcutaneous immunization
# Method: In order to determine experimentally whether this sequence homology could result in functional cross-reactivity between Der p II and myoglobin, mice were immunized by subcutaneous injections of FIS (SEQ ID NO. 2) or myoglobin.
# Balb/c mice (H-2^d) were injected once in the footpad with 50 μl of a solution containing 100 μg of peptide or myoglobin emulsified in complete Freund's adjuvant. Ten days later, regional lymph nodes were retrieved, teased and extensively washed with sterile saline to recover cells. The cell suspension was then washed in RPMI buffer (Gibco). Pure CD4^+ T cell suspensions were obtained by negative selection using antibodies towards CD45R, CD11b and CD11c, all conjugated to magnetic beads according to the manufacturer's instructions (Miltenyi Biotech GmbH, Germany).
# (§1) Functional cross-reactivity between Der p II, FIS and myoglobin was checked by in vitro proliferation assays. Thus, the T cell suspension was adjusted to 5×10^6 cells per ml in RPMI 1640 buffer supplemented with 2 mM glutamine, 100 U penicillin/ml, 100 jug streptomycin/ml, 5% heat-inactivated fetal calf serum and 5×10^−5 M 2-mercaptoethanol. One hundred μl of the T-cell-enriched fraction ([…]) was cultured in 100 μl of the above-described medium containing different concentrations of test peptide or myoglobin, and mitomycin-C treated syngeneic naive spleen cells as a source of APC (4×10^5 per well). Incubation was carried out into a humidified atmosphere of 5% CO2 in air for 4 days, and cells were pulsed during a final 18-h incubation with 1 μCi of [^3H] thymidine per well. The cells were then harvested onto glass fibres using a multiple-cell harvester. Radioactivity incorporated into proliferating cells was determined in a liquid scintillation counter. All tests were carried out in triplicate. The proliferative response was expressed as c.p.m.×10 after subtracting background value incorporation in the absence of antigen.
# [1] = system: T cells from peripheral blood; assay: proliferation assay with T cells from peripheral blood of atopic individuals; assay type: cell-based
# Method: as §1
# Moreover, T cells were prepared from the peripheral blood of atopic individuals. Thus, a 50-ml sample of peripheral blood was obtained in heparin. The blood sample was diluted vol/vol in RPMI 1640 and applied to a Ficoll-Hypaque density gradient. […]
# mouse T cells = assay: T cell proliferation assay in mice of additional H-2 haplotypes; assay type: cell-based; conditions: H-2b (C57BL/6), H-2k (C3H), H-2d (SJL) as printed; significant proliferative response for the three haplotypes
Molecule,proliferation of T cells from immunized mice (CD4+ T cells),immunogenicity (CD4+ T cells),proportion of human subjects recognising the T cell epitope [1],recognition of T cell epitope in additional mouse H-2 haplotypes (mouse T cells)
FISEAIIHVLHSR (Physeter catodon),proliferated to myoglobin and to Der p II,immunogen,–,–
SEPCIIHRGKP (Dermatophagoides) [SEQ ID NO. 1],–,–,more than 85%,recognised in the context of three additional mouse H-2 haplotypes
"myoglobin: Sheep myoglobin purchased from Sigma Chemicals; red pigment, oxygen reservoir of muscle cells (protein, UniProt P02190 2-154, looked up) Myoglobin: GLSDGEWQLVLNAWGKVEADVAGHGQEVLIRLFTGHPETLEKFDKFKHLKTEAEMKASEDLKKHGNTVLTALGGILKKKGHHEAEVKHLAESHANKHKIPVKYLEFISDAIIHVLHAKHPSDFGADAQGAMSKALELFRNDMAAQYKVLGFQG",proliferated to myoglobin and to Der p II,immunogen,–,–
